Here are results for 21 molecules from BindingDB's records for PubMed 8510008 (Eli Lilly, 1993).

Molecules are shown by their SMILES.

In assay [1] the target is 5-hydroxytryptamine receptor 2A (Rattus norvegicus, UniProt P14842).
For assay [2], the target named is 5-hydroxytryptamine receptor 2A (Sus scrofa, UniProt P50129).
Assay [3] concerns the target 5-hydroxytryptamine receptor 2A (Macaca mulatta, UniProt P50128).
Assay [4] has as its target T1, 5-hydroxytryptamine receptor 2C (Homo sapiens, UniProt P28335).
T1 sequence (P28335 whole entry): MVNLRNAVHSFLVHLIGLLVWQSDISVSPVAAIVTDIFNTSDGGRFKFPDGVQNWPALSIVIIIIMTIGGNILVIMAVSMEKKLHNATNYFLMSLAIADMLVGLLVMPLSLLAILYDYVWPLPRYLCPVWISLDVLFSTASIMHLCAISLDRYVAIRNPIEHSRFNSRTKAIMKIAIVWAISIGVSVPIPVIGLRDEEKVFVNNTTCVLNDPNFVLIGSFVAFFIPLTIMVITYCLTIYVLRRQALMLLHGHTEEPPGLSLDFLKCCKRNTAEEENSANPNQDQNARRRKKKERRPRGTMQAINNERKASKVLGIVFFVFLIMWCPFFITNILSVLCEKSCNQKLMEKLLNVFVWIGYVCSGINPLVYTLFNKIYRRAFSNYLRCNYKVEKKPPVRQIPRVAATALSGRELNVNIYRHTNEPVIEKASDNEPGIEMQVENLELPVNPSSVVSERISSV

5-hydroxytryptamine receptor 2A (Macaca mulatta, UniProt P50128), sequence (P50128 whole entry): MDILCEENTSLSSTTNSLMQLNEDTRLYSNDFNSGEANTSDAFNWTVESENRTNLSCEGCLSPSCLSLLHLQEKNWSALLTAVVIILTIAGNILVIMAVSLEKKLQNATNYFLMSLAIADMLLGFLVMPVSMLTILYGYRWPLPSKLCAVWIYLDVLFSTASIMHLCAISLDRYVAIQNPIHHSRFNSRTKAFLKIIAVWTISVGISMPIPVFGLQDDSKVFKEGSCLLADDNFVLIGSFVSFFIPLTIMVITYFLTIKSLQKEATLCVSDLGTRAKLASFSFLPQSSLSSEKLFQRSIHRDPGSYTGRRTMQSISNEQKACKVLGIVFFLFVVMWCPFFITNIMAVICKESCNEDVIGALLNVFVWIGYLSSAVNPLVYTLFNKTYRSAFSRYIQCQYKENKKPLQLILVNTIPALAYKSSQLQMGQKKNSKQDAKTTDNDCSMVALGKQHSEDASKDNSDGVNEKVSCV
5-hydroxytryptamine receptor 2A (Sus scrofa, UniProt P50129), sequence (P50129 whole entry): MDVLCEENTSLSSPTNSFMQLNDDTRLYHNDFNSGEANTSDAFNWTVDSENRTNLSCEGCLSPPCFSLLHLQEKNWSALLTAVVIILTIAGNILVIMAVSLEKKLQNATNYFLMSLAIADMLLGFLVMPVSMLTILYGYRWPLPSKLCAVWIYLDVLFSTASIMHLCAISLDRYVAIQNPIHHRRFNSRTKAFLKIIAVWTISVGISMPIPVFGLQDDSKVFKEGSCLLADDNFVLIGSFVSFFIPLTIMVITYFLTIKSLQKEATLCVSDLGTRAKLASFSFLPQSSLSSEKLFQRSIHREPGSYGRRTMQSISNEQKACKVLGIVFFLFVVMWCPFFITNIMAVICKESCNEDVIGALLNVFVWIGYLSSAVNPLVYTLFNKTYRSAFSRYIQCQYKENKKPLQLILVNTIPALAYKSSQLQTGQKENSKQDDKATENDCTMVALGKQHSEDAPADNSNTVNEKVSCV
5-hydroxytryptamine receptor 2A (Rattus norvegicus, UniProt P14842), sequence (P14842 whole entry): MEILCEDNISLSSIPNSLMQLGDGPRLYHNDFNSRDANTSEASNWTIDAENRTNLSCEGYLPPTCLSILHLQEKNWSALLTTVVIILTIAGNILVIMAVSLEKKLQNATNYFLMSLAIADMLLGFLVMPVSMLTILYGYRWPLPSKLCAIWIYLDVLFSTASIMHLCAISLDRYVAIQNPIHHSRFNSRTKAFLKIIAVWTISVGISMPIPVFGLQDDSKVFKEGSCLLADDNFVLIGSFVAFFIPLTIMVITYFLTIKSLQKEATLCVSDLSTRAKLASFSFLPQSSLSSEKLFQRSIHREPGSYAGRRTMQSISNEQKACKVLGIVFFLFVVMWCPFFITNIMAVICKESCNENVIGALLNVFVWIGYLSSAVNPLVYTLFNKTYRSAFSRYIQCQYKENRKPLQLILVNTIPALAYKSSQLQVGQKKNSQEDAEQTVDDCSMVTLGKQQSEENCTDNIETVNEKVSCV

As a reminder, the Ki is a dissociation constant, usually derived from enzyme kinetics or from competition with a known ligand. A lower Ki goes with tighter binding. `COc1ccc2c(c1)c(CCN)cn2C(C)C` [1-Isopropyl-5-Methoxytryptamine]: the inhibition constant (Ki) in assay [1] was determined as 3560 nM; in assay [2], 7290 nM.

`CN1C[C@H](CNC(=O)OCc2ccccc2)C[C@@H]2c3cccc4c3c(cn4C)C[C@H]21` [METERGOLINE]: the Ki in assay [2] amounted to 0.37 nM; in assay [3], 0.82 nM.

Regarding `Cc1ccc2[nH]cc(CCN)c2c1` [5-Methyl-tryptamine, 10], the inhibition constant Ki in assay [1] is 6150 nM; in assay [4], 3220 nM.

For the molecule `CC(O)C(C)OC(=O)C1CC2c3cccc4[nH]cc(c34)CC2N(C)C1` (stereo unspecified) [LY86057], the Ki in assay [1] is 55.9 nM; in assay [4], 3.3 nM; in assay [2] it was 4.6 nM; in assay [3] it was 3.2 nM.

Turning to `COc1ccc2[nH]cc(CCN)c2c1` [tryptamine, 5-Methoxy], the values for the inhibition constant Ki in assay [4] and in assay [2] were 943 nM and 923 nM, respectively.

Take `NCCc1c[nH]c2ccc(Br)cc12`: the inhibitory constant (Ki) in assay [1] turned out to be 3240 nM; in assay [4] it was 1520 nM.

In assay [1], `COC1CCC(OC(=O)C2CC3c4cccc5c4c(cn5C(C)C)CC3N(C)C2)CC1` (stereo unspecified) [NSC_60262] came in with an inhibition constant (Ki) of 10.9 nM.

Take `CN1C[C@H](C(=O)NC2CCCCC2)C[C@@H]2c3cccc4[nH]cc(c34)C[C@H]21` [LY-193525]: the inhibition constant Ki came to 41.6 nM in assay [1], 3.6 nM in assay [2] and 2.1 nM in assay [3].

Turning to `NCCc1c[nH]c2ccccc12` [1H-indole-3-ethanamine], the Ki in assay [1] was over 10000 nM; in assay [4] it was 3000 nM; in assay [2], 3390 nM.

As to `CC(C)n1cc(CCN)c2cc(Br)ccc21` [5-Br-T, 1-Isopropyl], the inhibition constant Ki in assay [1] stood at 3440 nM; in assay [4] it was 6240 nM.

Regarding `CC(O)C(C)OC(=O)C1CC2c3cccc4c3c(cn4C(C)C)CC2N(C)C1` (stereo unspecified) [CAS_60634-51-7], the Ki in assay [1] came out at 7.2 nM; in assay [4] it was 30.6 nM; in assay [2], 40 nM; in assay [3], 33.1 nM.

Turning to `CC(CO)NC(=O)C1C=C2c3cccc4[nH]cc(c34)CC2N(C)C1` (stereo unspecified) [CAS_60-79-7], the Ki in assay [1] came out at 46.4 nM; in assay [4], 31.1 nM; in assay [2] it was 3.8 nM; in assay [3], 3.4 nM.

On to `CC(C)n1cc2c3c(cccc31)C1CC(C(=O)NC3CCCCC3)CN(C)C1C2` (stereo unspecified) [NSC_60740], for which the results for the inhibition constant (Ki) in assay [1], in assay [2] and in assay [3] were 6.9 nM, 30.7 nM and 26.5 nM, respectively.

`CC(O)C(C)OC(=O)[C@@H]1C[C@@H]2c3cccc4c3c(cn4C)C[C@H]2N(C)C1` (stereo partly specified) [1,6-Dimethylergoline-8-carboxylic acid 2-hydroxy-1-methylpropyl ester]: the Ki is 9.3 nM in assay [1], 57.2 nM in assay [2] and 56.8 nM in assay [3].

For `CC(C)n1cc2c3c(cccc31)C1CC(C(=O)NC3CCCC3O)CN(C)C1C2` (stereo unspecified) [NSC_132049], the Ki was found to be 5.8 nM in assay [1] and 27.7 nM in assay [4].

Turning to `Cc1ccc2c(c1)c(CCN)cn2C(C)C` [1-Isopropyl-5-Methyltryptamine], the inhibitory constant (Ki) was 4680 nM in assay [1] and over 10000 nM in assay [4].

In the case of `COC1CCC(OC(=O)[C@@H]2C[C@@H]3c4cccc5[nH]cc(c45)C[C@H]3N(C)C2)CC1` (stereo partly specified) [LY-254239], in assay [1], the inhibition constant Ki is 42 nM.

Take `CC(C)n1cc(CCN)c2ccccc21` [1-Isopropyltryptamine]: the Ki in assay [1] is 3860 nM; in assay [4], 7030 nM; in assay [2], 5720 nM.

Turning to `CN1C[C@@H](NS(=O)(=O)N(C)C)C[C@@H]2c3cccc4c3c(cn4C)C[C@H]21` [MESULERGINE], the Ki in assay [2] is 54.2 nM; in assay [3], 44.9 nM.

In assay [1], `CN1C[C@H](C(=O)N[C@@H]2CCC[C@@H]2O)C[C@@H]2c3cccc4[nH]cc(c34)C[C@H]21` [N-[(1R,2S)-2-Hydroxycyclopentyl]-6-methylergoline-8-beta-carboxamide] had a Ki of 64.4 nM.

Consider `CC(C)Cn1cc2c3c(cccc31)[C@H]1C[C@@H](C(=O)OC(C)C(C)O)CN(C)[C@@H]1C2` (stereo partly specified) [LY-197541], for which the Ki in assay [1] was found to be 242 nM; in assay [2], 148 nM; in assay [3], 153 nM.
